Earlier results, collected in patent publication US20190167750A1, “NUTRITIONAL SUPPLEMENTS FOR INCREASING MALE TESTOSTERONE LEVELS” (Innovus Pharmaceuticals, Inc., priority 2017, published 2019).

Legend:
human CYP3A4 = human CYP3A4 (Homo sapiens, UniProt P08684)
P-glycoprotein = P-glycoprotein (Homo sapiens, UniProt P08183)
P-glycoprotein, sequence (P08183 whole entry): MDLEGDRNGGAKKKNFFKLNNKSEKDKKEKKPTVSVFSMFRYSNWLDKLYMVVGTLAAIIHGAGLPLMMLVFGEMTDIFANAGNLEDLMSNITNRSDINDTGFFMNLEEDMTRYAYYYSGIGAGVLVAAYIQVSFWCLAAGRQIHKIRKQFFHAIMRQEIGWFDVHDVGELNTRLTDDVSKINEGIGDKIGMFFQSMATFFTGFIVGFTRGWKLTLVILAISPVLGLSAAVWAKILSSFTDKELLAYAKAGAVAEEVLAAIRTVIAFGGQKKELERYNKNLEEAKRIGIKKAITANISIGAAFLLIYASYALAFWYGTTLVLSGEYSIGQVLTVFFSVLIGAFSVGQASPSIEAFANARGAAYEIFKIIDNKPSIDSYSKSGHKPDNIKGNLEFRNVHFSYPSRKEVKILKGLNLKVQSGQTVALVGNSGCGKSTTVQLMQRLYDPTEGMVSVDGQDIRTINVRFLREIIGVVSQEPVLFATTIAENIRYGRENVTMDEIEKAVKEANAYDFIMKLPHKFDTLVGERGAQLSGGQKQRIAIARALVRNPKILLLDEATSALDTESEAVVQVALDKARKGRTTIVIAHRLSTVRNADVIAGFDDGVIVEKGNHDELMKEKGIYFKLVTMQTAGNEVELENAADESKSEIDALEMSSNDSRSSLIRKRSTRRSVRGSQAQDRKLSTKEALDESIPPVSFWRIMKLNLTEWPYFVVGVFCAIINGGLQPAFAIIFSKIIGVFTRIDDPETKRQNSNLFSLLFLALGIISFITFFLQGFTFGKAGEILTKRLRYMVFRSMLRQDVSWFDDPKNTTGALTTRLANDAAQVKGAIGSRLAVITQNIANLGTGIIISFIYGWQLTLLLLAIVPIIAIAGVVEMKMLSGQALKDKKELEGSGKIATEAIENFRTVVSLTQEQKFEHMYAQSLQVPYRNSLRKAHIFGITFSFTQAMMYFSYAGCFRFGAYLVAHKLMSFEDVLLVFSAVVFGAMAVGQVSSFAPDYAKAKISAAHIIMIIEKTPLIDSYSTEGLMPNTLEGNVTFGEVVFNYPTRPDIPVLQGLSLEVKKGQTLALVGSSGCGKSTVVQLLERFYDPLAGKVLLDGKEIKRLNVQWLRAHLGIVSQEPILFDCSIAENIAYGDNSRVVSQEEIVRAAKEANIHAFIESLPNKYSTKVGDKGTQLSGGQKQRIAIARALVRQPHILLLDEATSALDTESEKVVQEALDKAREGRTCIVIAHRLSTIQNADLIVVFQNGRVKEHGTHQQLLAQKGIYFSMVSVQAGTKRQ

human CYP3A4, sequence (P08684 whole entry): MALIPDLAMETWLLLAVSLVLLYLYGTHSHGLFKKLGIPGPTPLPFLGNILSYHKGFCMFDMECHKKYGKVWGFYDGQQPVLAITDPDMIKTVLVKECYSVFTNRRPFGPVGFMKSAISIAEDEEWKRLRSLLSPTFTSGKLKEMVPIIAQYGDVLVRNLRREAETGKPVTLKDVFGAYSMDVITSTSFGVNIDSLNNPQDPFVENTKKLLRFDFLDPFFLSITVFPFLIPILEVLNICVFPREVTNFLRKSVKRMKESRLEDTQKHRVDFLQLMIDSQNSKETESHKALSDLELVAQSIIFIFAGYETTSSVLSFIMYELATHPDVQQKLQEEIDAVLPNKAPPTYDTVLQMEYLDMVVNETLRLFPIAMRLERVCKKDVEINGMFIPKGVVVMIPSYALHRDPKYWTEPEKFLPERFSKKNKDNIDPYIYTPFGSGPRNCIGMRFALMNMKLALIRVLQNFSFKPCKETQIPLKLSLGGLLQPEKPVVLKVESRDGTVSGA

- inhibition of human CYP3A4 (human CYP3A4): inhibits
- inhibition of P-glycoprotein (P-glycoprotein): inhibits
Compound: O=C(/C=C/C=C/c1ccc2c(c1)OCO2)N1CCCCC1 [Bioperine, (2E,4E)-5-(1,3-benzodioxol-5-yl)-1-(piperidin-1-yl)penta-2,4-dien-1-one]
